Experimental data taken from patent publication US20080182851A1, “ACETYLENE DERIVATIVES AS STEAROYL COA DESATURASE INHIBITORS” (Glenmark Pharmaceuticals S.A., priority 2006, published 2008).

biological target: T1, human SCD1 enzyme (Homo sapiens, UniProt O00767); experiment: Tritiated water release assay (conversion of radiolabeled stearoyl-CoA to oleoyl-CoA); type: biochemical; conditions: 10 μM concentration of test compounds; microsomal SCD1, 3H stearoyl CoA, 37° C. 30 minutes; percent of control reaction
T1 sequence (O00767 1-359): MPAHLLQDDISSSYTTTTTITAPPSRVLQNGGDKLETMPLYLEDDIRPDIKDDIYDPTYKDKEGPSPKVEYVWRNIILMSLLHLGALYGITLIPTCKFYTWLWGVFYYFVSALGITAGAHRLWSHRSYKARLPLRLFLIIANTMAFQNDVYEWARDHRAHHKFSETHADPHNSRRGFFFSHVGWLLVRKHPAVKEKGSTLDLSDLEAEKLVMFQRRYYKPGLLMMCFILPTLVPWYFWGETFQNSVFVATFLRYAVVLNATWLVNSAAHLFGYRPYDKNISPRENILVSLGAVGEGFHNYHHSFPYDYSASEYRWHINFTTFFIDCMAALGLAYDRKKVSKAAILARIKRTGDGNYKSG
Experimental: The in-vitro activity of the compounds of the present invention against stearoyl coenzyme desaturase was determined by following conversion of radiolabeled-stearoyl-CoA to oleoyl-CoA using human SCD1 enzyme using a previously published assay procedure with some modifications (Barbara R Talamo and Konrad Bloch, Analytical Biochemistry, 1969, 29, 300-304). This assay protocol is only illustrative and is not meant to limit to the scope of the present invention.
In this assay the microsomal SCD1 enzyme desaturates its substrate, Stearoyl CoA (purchased from American Radiochemicals Ltd.) which is tritiated at C9 and C10 positions. Test compounds were dissolved in dimethylsulfoxide and tested at 10 μM final concentration. Before substrate addition, the test compound or standard reference compound (conjugated linoleic acid at 100 μM final concentration) were pre-incubated in reaction buffer with the enzyme for 10 minutes at 30° C. with shaking. Reaction buffer was prepared as described in literature (Obukowicz et al. JPET, 1998, 287, 157-166) except that the MgCl2, ATP (purchased from Sigma) and CoA (purchased from Sigma) concentrations were changed to 4.9 mM, 7.2 mM and 0.54 mM respectively. The desaturation reaction was initiated by addition of 0.5 μCi of ^3H stearoyl CoA and incubated at 37° C. for 30 minutes with shaking. A control reaction was set without any test compound/reference inhibitor to capture maximum enzymatic activity in the assay. Inhibition of enzyme activity was calculated as a percent of this control reaction giving maximum catalysis and the results are given in Table 5.
Table 5: Tritiated water release assay at 10 μM substrate concentration *Conjugated Linoleic acid was used as a reference standard

Row | SMILES | inhibition at 10 µM [%]
1 | Oc1ccc(C#Cc2ccc(N3CCC(Oc4ccccc4F)CC3)nn2)cc1 [Example 77] | 97

same assay, conditions: 10 μM concentration of test compounds; microsomal SCD1, 3H stearoyl CoA, 37° C. 30 minutes; percent of control reaction; read-out: % Inhibition

Row | SMILES | inhibition at 10 µM [%]
2 | CCOC(=O)COc1cccc(C#Cc2ccc(N3CCN(C(=O)c4ccccc4C(F)(F)F)CC3)nc2)c1 [Example 26, Ethyl-2-[3-(2-{6-[4-(2-trifluoromethylbenzoyl)piperazino]-3-pyridyl}-1-ethynyl)-phenoxy]acetate] | 27
3 | O=C(c1ccccc1C(F)(F)F)N1CCN(c2ccc(C#Cc3ccc(C(F)(F)F)cc3)nn2)CC1 [Example 41, 2-Trifluoromethylphenyl-4-{6-[2-(4-trifluoromethylphenyl)-1-ethynyl]-3-pyridazinyl}-piperazinomethanone] | 93
4 | O=C(c1ccccc1C(F)(F)F)N1CCN(c2ccc(C#Cc3cccc(O)c3)nn2)CC1 [Example 38, 4-{6-[2-(3-Hydroxyphenyl)-1-ethynyl]-3-pyridazinyl}piperazino-2-trifluoromethyl-phenylmethanone] | 99
5 | CC(=O)NCC#Cc1ccc(N2CCN(C(=O)c3ccccc3C(F)(F)F)CC2)nc1 [Example 15, N1-(3-{6-[4-(2-Trifluoromethylbenzoyl)piperazino]-3-pyridyl}-2-propynyl)acetamide] | 49
6 | O=C(c1ccccc1C(F)(F)F)N1CCN(c2ccc(C#Cc3ccc(F)c(F)c3)nn2)CC1 [Example 40, 4-{6-[2-(3,4-Difluorophenyl)-1-ethynyl]-3-pyridazinyl}piperazino-2(trifluoromethyl)-phenylmethanone] | 81
7 | COC(=O)c1ccc(C#Cc2ccc(N3CCN(C(=O)c4ccccc4C(F)(F)F)CC3)nc2)cc1 [Example 32] | 35
8 | O=C(O)COc1cccc(C#Cc2ccc(N3CCN(C(=O)c4ccccc4C(F)(F)F)CC3)nc2)c1 [Example 27, 2-[3-(2-{6-[4-(2-Trifluoromethylbenzoyl)piperazino]-3-pyridyl}-1-ethynyl)phenoxy]-acetic acid] | 30
9 | O=C(c1ccccc1C(F)(F)F)N1CCN(c2ccc(C#CCO)cn2)CC1 [Example 1, 4-[5-(3-Hydroxy-1-propynyl)-2-pyridyl]piperazino-2-trifluoromethylphenylmethanone] | 36
10 | O=C(c1ccccc1C(F)(F)F)N1CCN(c2ccc(C#Cc3ccc(F)cc3)nn2)CC1 [Example 39] | 75
11 | CC(=O)Oc1ccccc1C#Cc1ccc(N2CCN(C(=O)c3ccccc3C(F)(F)F)CC2)nc1 [Example 29] | 24
12 | CCCCS(=O)(=O)NCC#Cc1ccc(N2CCN(C(=O)c3ccccc3C(F)(F)F)CC2)nc1 [Example 16, N1-(3-{6-[4-(2-Trifluoromethylbenzoyl)piperazino]-3-pyridyl}-2-propynyl)-1-butane sulfonamide] | 42
13 | CCC(O)C#Cc1ccc(N2CCN(C(=O)c3ccccc3C(F)(F)F)CC2)nc1 (stereo not drawn) [Example 6, 4-[5-(3-Hydroxy-1-pentynyl)-2-pyridyl]piperazino-2-trifluoromethylphenylmethanone] | 24
14 | O=C(c1ccccc1C(F)(F)F)N1CCN(c2ccc(C#CCOC3CCCC3)cn2)CC1 [Example 9, 4-[5-(3-Cyclopentyloxy-1-propynyl)-2-pyridyl]piperazino-2-trifluoromethylphenyl-methanone] | 86
15 | O=C(c1ccccc1C(F)(F)F)N1CCN(c2ccc(C#Cc3ccc(O)cc3)cn2)CC1 [Example 23, 4-{5-[2-(4-Hydroxyphenyl)-1-ethynyl]-2-pyridyl}piperazino-2-trifluoromethylphenyl methanone] | 91
16 | O=C(c1ccccc1C(F)(F)F)N1CCN(c2ccc(C#CC(O)C34CC5CC(CC(C5)C3)C4)cn2)CC1 (stereo not drawn) [Example 7, 4-[5-{3-Hydroxy-3-(1-adamantyl)-1-propynyl}-2-pyridyl]piperazino-2-trifluoromethyl-phenylmethanone] | 0.35
17 | CC(=O)Nc1cccc(C#Cc2ccc(N3CCN(C(=O)c4ccccc4C(F)(F)F)CC3)nc2)c1 [Example 36, N1-[3-(2-{6-[4-(2-Trifluoromethylbenzoyl)piperazino]-3-pyridyl}-1-ethynyl)phenyl]acetamide] | 23
18 | O=C(c1cc(Cl)ccc1Cl)N1CCN(c2ccc(C#Cc3cccc(O)c3)cn2)CC1 [Example 28] | 98

Other lines, results leading:

Row | inhibition at 10 µM [%] | SMILES
19 | 12 | COc1c(F)ccc(C#Cc2ccc(N3CCC(Oc4ccccc4F)CC3)nn2)c1F [Example 94, 3-[(2,4-Difluoro-3-methoxyphenyl)ethynyl]-6-[4-(2-fluorophenoxy)piperidin-1-yl]pyridazine]
20 | 99 | Oc1ccc(C#Cc2ccc(N3CCC(O)(Cc4ccccc4)CC3)nn2)cc1 [Example 62, 4-Benzyl-1-{6-[(4-hydroxyphenyl)ethynyl]pyridazin-3-yl}piperidin-4-ol]
21 | 47 | CC(=O)Oc1ccc(C#Cc2cnc(N3CCN(C(=O)c4ccccc4C(F)(F)F)CC3)s2)cc1 [Example 53, 4-(2-{2-[4-(2-Trifluoromethylbenzoyl)piperazino]-1,3-thiazol-5-yl}-1-ethynyl)phenyl acetate]
22 | 87 | CC(=O)Oc1ccc(C#Cc2ccc(N3CCC(O)(Cc4cc(Cl)ccc4Cl)CC3)nn2)cc1 [Example 64]
23 | 55 | CC(=O)Oc1ccc(C#Cc2ccc(NCCOc3ccccc3F)nn2)cc1 [Example 99]
24 | 94 | CC(=O)Oc1ccc(C#Cc2ccc(N3CC(Oc4ccccc4F)C3)nn2)cc1 [Example 66]
25 | 92 | CC(=O)Oc1cccc(C#Cc2ccc(N3CCN(CC4CCCCC4)CC3)nn2)c1 [Example 56]
26 | 86 | O=C(Oc1ccc(C#Cc2ccc(N3CCC(Oc4ccccc4F)CC3)nn2)cc1)c1ccco1 [Example 80, 4-{6-[4-(2-Fluorophenoxy)piperidin-1-yl]pyridazin-3-yl}ethynylphenyl-2-furoate]
27 | 98 | Oc1ccc(C#Cc2ccc(N3CCC(Oc4ccccc4F)CC3)nn2)cc1F [Example 82]
28 | 60 | Oc1cccc(C#Cc2ccc(N3CCN(CC4CC4)CC3)nn2)c1 [Example 55, 3-({6-[4-(Cyclopropylmethyl)piperazin-1-yl]pyridazin-3-yl}ethynyl)phenol]
29 | 82 | Fc1cccc(C#Cc2ccc(N3CCC(Oc4ccccc4C(F)(F)F)CC3)nn2)c1 [Example 89, 3-[2-(3-Fluorophenyl)-1-ethynyl]-6-[4-(2-trifluoromethylphenoxy)piperidino]pyridazine]
30 | 43 | O=C(c1ccccc1C(F)(F)F)N1CCN(c2ccc(C#Cc3cnccn3)cn2)CC1 [Example 45]
31 | 91 | O=C(c1ccccc1C(F)(F)F)N1CCN(c2ccc(C#Cc3ccc4[nH]ccc4c3)cn2)CC1 [Example 49, 4-{5-[2-(1H-5-Indolyl)-1-ethynyl]-2-pyridyl}piperazino-2-trifluoromethylphenyl-methanone]
32 | 95 | N#Cc1ccccc1OC1CCN(c2ccc(C#Cc3cccc(O)c3)nn2)CC1 [Example 88]
33 | 100 | Oc1cccc(C#Cc2ccc(N3CCC(Oc4ccccc4F)CC3)nn2)c1 [Example 86, 3-(2-{6-[4-(2-Fluorophenoxy)piperidino]-3-pyridazinyl}-1-ethynyl)phenol]
34 | 88 | CC(=O)Oc1ccc(C#Cc2ccc(N3CCC(Oc4ccccc4F)CC3)nn2)cc1 [Example 75, 4-[{6-[4-(2-Fluorophenoxy)piperidin-1-yl]pyridazin-3-yl}ethynyl]phenyl acetate]
35 | 94 | Oc1ccc(C#Cc2ccc(N3CCC(O)(Cc4ccccc4F)CC3)nn2)cc1 [Example 63, 4-(2-Fluorobenzyl)-1-{6-[(4-hydroxyphenyl)ethynyl]pyridazin-3-yl}piperidin-4-ol]
36 | 93 | COc1cc(C#Cc2ccc(N3CCC(Oc4ccccc4F)CC3)nn2)ccc1O [Example 83, 2-Methoxy-4-{6-[4-(2-fluorophenoxy)piperidin-1-yl]pyridazin-3-yl}ethynylphenol]
37 | 95 | Oc1cccc(C#Cc2cnc(N3CCC(Oc4ccccc4F)CC3)nc2)c1 [Example 98]
38 | 37 | Fc1ccccc1OC1CCN(c2ccc(C#Cc3ccc(C(F)(F)F)cc3)nn2)CC1 [Example 84, 3-[4-(2-Fluorophenoxy)piperidino]-6-[2-(4-trifluoromethylphenyl)-1-ethynyl]pyridazine]
39 | 97 | CC(=O)Oc1ccc(C#Cc2ccc(N3CCC(Oc4cc(Cl)ccc4Cl)CC3)nn2)cc1 [Example 92, 4-[{6-[4-(2,5-Dichlorophenoxy)piperidin-1-yl]pyridazin-3-yl}ethynyl]phenyl acetate]
